Tested on: synaptic proteins (GluR1, Synapsin 1, PSD95)
Experiment: Western blot of synaptic proteins in crude synaptosomes from rat prefrontal cortex
Assay type: in vivo
Conditions: for levels of GluR1 in crude PFC synaptosomes / levels of PSD95 in crude PFC synaptosomes / levels of Synapsin 1 in crude PFC synaptosomes: Example B, 24 hr after administration
Protocol: Study Design. Forty-eight (48) male Sprague Dawley rats weighing between 175 and 200 g were randomized into 8 study groups (n=6/group), following a 5-day acclimation period. On study day 0, rats in Groups 3 and 7 received a single dose of Sal while Groups 4 and 8 received a single dose of Ket (10 mg/kg) each by i.p. injection. […] One hour after dosing, rats in Groups 1-4 were sacrificed by conscious decapitation and followed by collection of the PFC. Crude synaptosomes were prepared from the PFC and three mTORC1 substrates, pmTOR, pp70S6K and p4E-BP1, and corresponding total protein loading controls (mTOR, p70S6K, and GAPDH) were quantitated by WB. Twenty-four hours after dosing, rats in Groups 5-8 were sacrificed by conscious decapitation and collection of the PFC. Crude synaptosomes were prepared from the PFC and the synaptic proteins (GluR1 and PSD95), as well as the total protein loading control (GAPDH), were quantitated by WB.
Prefrontal Cortex Synaptosome Preparations. The brain was dissected from rats in all groups (n=6/group) and rinsed in PBS. The PFC was collected as shown in FIG. 6 and homogenized at 4° C. in homogenization buffer (0.32 M sucrose, 20 mM HEPES at pH 7.4, 1 mM EDTA, 5 mM NaF, 1 mM NaVO3 and protease inhibitor cocktail (Roche; Ser. No. 19/543,200)). The homogenate was centrifuged for 10 min at 2,800 rpm at 4° C. after which the supernatant was removed and re-centrifuged at 12,000 rpm for 10 min at 4° C. The resulting pellet containing crude synaptosomes was re-suspended in Lysis buffer (50 mM Tris-HCl (pH 7.5), 150 mM NaCl, 1% Triton X-100, 0.1% SDS, 2 mM, EDTA, 1 mM NaVO3, 5 mM NaF and protease inhibitor cocktail) and sonicated on ice for 20 s at 50% amplitude. The protein concentration was determined by Bradford assay and all samples were mixed with loading buffer (60 mM Tris-HCl pH 6.8, 20 mM DTT, 2% SDS, 10% glycerol, 5% β-mercaptoethanol and 0.01% Bromophenol blue) and stored at -20° C. until WB analysis.
Western Blot Analysis: Western blot analysis for GluR1, PSD95 and GAPDH was performed as previously described. Briefly, synaptosomes preparations (15 μg total protein) were loaded into 10-15% SDS PAGE gel for electrophoresis and transferred to a polyvinylidene difluoride (PVDF) membrane in transfer buffer (10× premixed electrophoresis buffer contains 25 mM Tris, 192 mM glycine, pH 8.3; Bio-Rad). The PVDF membranes were blocked for 1 hr at room temperature with blocking buffer (2% BSA in PBS-T (10 mM Phosphate, pH 7.4, 2.7 mM KCl, 137 mM NaCl and 0.1% Tween-20)) and subsequently incubated with primary antibodies: rabbit anti-pmTOR at 1:1000 (Cell Signaling; #5536), rabbit anti-mTOR at 1:1000 (Cell Signaling; #2972), rabbit anti-pp70S6K at 1:1000 (Cell Signaling; #9205), rabbit anti-p70S6K at 1:1000 (Cell Signaling; #2708), rabbit anti-p4E-BP1 at 1:1000 (Cell Signaling; #2855), rabbit anti-GluR1 at 1:1000 (Cell Signaling; #13185), rabbit anti-Synapsin 1 at 1:1000 (Cell Signaling; #5297), rabbit anti-PSD95 at 1:1000 (Cell Signaling; #9644) and rabbit anti-GAPDH at 1:1000 (Cell Signaling; #5174) in blocking buffer overnight at 4° C. The next day, membranes were washed 3 times in PBS-T buffer and incubated with horseradish peroxidase conjugated anti-mouse or anti-rabbit secondary antibody at 1:5000 to 1:10000 (Vector Laboratories Inc) for 1 hr. After final three washes with PBS-T buffer, bands were detected using enhanced chemiluminescence. The blots then were incubated in the stripping buffer (2% SDS, 100 mM β-mercaptoethanol, 50 mM Tris-HCl pH 6.8) for 30 min at 50-55° C. followed by three washes with PBS-T buffer. The stripped blots were kept in blocking solution for 1 hr and incubated with the primary antibody directed against total levels of the respective protein or GAPDH for loading control. Densitometric analysis of phospho- and total immunoreactivity for each protein was conducted using NIH Image J software. […]

| SMILES | levels of GluR1 in crude PFC synaptosomes (Ket 10 mg/kg i.p.) | levels of PSD95 in crude PFC synaptosomes (Ket 10 mg/kg i.p.) | levels of Synapsin 1 in crude PFC synaptosomes (Ket 10 mg/kg i.p.) | levels of GluR1 in crude PFC synaptosomes (NV-5138 160 mg/kg oral) | levels of PSD95 in crude PFC synaptosomes (NV-5138 160 mg/kg oral) | levels of Synapsin 1 in crude PFC synaptosomes (NV-5138 160 mg/kg oral) | GluR1 in crude PFC synaptosomes (Example E, CUS rats, NV-5138 160 mg/kg oral, 24 hrs after second dose (day 5), p<0.01) | PSD95 in crude PFC synaptosomes (Example E, CUS rats, NV-5138 160 mg/kg oral, 24 hrs after second dose (day 5), p<0.05) |
| --- | --- | --- | --- | --- | --- | --- | --- | --- |
| CNC1(c2ccccc2Cl)CCCCC1=O (centres unmarked) [Ket, ketamine, reference compound] | significantly increased | significantly increased | significantly increased |  |  |  |  |  |
| CC(C)(C[C@H](N)C(=O)O)C(F)F [NV-5138] |  |  |  | significantly increased | trend toward increased expression | significantly increased | normalization | normalization |

Source: patent US20210228523A1, “MODULATORS OF SESTRIN-GATOR2 INTERACTION AND USES THEREOF” (Navitor Pharmaceuticals, Inc., priority 2017, published 2021)
